Laboratory results published in ChEMBL document CHEMBL4725417, “Membrane Permeable, Bioreversibly Modified Prodrugs of Nucleoside Diphosphate-γ-Phosphonates” (J Med Chem, 2020).
Activity calls are given as the source filed them. No cut-off for these calls is given here.

Assays:
[1] = test system: Human immunodeficiency virus 2; test: Antiviral activity against HIV2 ROD infected in human CEM/0 CD4+ T cells assessed as reduction in virus-induced cytopathogenicity by measuring syncytia cell formation incubated for 4 to 5 days by microscopy; settings: Human immunodeficiency virus 2, ISOLATE ROD, CCRF-CEM
[2] = test system: Human immunodeficiency virus 2; test: Antiviral activity against HIV2 ROD infected in human TK-deficient CEM/TK- T-cells assessed as reduction in virus-induced cytopathogenicity by measuring syncytia cell formation incubated for 4 to 5 days by microscopy; settings: Human immunodeficiency virus 2, ISOLATE ROD
[3] = Cytotoxicity in human CEM cells assessed as reduction in cell proliferation; type: cell-based; settings: CEM cells (CCRF-CEM)
[4] = Half life in human CEM/0 cell extracts at 6 mM by HPLC analysis; type: ADME, tissue-based, CCRF-CEM
[5] = molecular target: T1, DNA polymerase alpha catalytic subunit (Homo sapiens) (UniProt P09884); test: Substrate activity at human DNA polymerase alpha incubated at 37 degC for 60 mins and at 80 degC for 7 mins by primer extension assay; settings: time 67.0 min
T1 sequence (whole entry): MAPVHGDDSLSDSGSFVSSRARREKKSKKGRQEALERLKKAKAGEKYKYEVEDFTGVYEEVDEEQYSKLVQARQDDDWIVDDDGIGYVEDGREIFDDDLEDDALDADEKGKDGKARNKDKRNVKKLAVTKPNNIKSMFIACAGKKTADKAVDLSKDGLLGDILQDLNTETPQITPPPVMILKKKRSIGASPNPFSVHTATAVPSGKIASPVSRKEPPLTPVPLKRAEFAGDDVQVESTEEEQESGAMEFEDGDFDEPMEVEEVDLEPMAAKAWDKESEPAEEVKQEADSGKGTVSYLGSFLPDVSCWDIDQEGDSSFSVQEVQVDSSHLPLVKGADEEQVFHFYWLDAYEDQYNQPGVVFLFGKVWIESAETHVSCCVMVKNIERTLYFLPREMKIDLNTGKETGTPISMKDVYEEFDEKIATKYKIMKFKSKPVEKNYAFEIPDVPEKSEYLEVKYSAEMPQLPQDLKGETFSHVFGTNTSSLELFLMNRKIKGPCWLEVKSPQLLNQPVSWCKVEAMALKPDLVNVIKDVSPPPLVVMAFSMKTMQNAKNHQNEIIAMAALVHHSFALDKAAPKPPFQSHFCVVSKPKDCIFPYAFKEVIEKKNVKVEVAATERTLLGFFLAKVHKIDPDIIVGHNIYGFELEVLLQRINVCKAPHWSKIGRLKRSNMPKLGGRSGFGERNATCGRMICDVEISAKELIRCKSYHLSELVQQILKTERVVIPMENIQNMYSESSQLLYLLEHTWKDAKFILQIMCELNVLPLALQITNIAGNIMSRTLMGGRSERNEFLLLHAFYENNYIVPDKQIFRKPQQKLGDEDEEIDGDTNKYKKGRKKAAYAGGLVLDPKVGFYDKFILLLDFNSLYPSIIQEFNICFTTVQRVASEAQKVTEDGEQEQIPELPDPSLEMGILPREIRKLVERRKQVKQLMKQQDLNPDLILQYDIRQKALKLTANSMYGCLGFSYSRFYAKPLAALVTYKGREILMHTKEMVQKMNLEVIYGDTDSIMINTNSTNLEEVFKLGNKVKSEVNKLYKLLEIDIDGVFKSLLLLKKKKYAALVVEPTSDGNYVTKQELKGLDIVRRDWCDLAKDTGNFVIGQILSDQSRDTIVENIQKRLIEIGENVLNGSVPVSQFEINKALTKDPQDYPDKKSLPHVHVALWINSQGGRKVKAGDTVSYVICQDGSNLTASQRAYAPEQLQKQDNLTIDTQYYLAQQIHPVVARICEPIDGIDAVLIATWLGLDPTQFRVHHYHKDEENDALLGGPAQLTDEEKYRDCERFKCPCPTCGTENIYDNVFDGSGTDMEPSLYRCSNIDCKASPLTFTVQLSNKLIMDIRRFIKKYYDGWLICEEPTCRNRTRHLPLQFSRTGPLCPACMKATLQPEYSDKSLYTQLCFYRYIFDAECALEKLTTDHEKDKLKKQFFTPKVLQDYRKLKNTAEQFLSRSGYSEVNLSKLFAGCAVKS

[6] = Half life in pH 7.3 PBS buffer at 1.4 mM by HPLC analysis; type: physicochemical
[7] = Half life assessed as pig liver esterase-mediated compound hydrolysis at 6 mM by HPLC analysis; type: ADME, Sus scrofa
[8] = molecular target: DNA polymerase beta (Homo sapiens) (UniProt P06746); test: Substrate activity at human DNA polymerase beta incubated at 37 degC for 60 mins and at 80 degC for 7 mins by primer extension assay; settings: time 67.0 min
[9] = test system: Human immunodeficiency virus 1; test: Antiviral activity against HIV1 3B infected in human CEM/0 CD4+ T cells assessed as reduction in virus-induced cytopathogenicity by measuring syncytia cell formation incubated for 4 to 5 days by microscopy; type: functional, organism-based; settings: Human immunodeficiency virus 1, 3B, CCRF-CEM
Homo sapiens = organism: Homo sapiens; test: Substrate activity at human DNA polymerase gamma incubated at 37 degC for 60 mins and at 80 degC for 7 mins by primer extension assay; settings: time 67.0 min
[10] = molecular target: Human immunodeficiency virus type 1 reverse transcriptase (Human immunodeficiency virus 1) (UniProt Q72547); test: Substrate activity at HIV1 reverse transcriptase incubated at 37 degC for 30 mins and at 80 degC for 7 mins by primer extension assay; settings: time 37.0 min

SMILES | EC50 [1] [nM] | EC50 [2] [nM] | CC50 [3] [nM] | half-life at 6000 µM [4] [h] | Activity [5] | half-life at 1400 µM [6] [days] | half-life at 6000 µM [7] [h] | Activity [8] | EC50 [9] [nM] | Activity (Homo sapiens) | Activity [10]
CCCCCCCCCCCCCCCCCCP(=O)(O)OP(=O)(O)OP(=O)(O)OC[C@@H]1C=C[C@H](n2cc(C)c(=O)[nH]c2=O)O1.N.N.N | 110 | 1580 | 21000 | > 30 | inactive | 22.3 | > 80 | inactive | 46 | inactive | inactive
CCCCCCCCCCCCP(=O)(OCc1ccc(OC(=O)CCCC)cc1)OP(=O)(O)OP(=O)(O)OC[C@@H]1C=C[C@H](n2cc(C)c(=O)[nH]c2=O)O1.N.N (stereo not given in full) | 25 | 3430 | 86000 | 0.81 |  | 8.96 | 0.013 |  | 65 |  | 
CCCCCCCCCCCCP(=O)(O)OP(=O)(O)OP(=O)(O)OC[C@@H]1C=C[C@H](n2cc(C)c(=O)[nH]c2=O)O1.N.N.N | 170 | 41100 | > 100000 | > 30 | inactive | > 125 | > 150 | inactive | 150 | inactive | Active
CCCCCCCCCCCCCCCCCCP(=O)(OCCC#N)OP(=O)(O)OP(=O)(O)OC[C@@H]1C=C[C@H](n2cc(C)c(=O)[nH]c2=O)O1.N.N (stereo not given in full) | 46 | 140 | 38000 | > 10 |  | 20 | > 150 |  | 95 |  | 
Cc1cn([C@H]2C=C[C@@H](CO)O2)c(=O)[nH]c1=O [STAVUDINE] |  |  | > 50000 |  | inactive |  |  | Active |  | inactive | 
CCCCCCCCCCCCP(=O)(OCc1ccc(OC(=O)OCCCC)cc1)OP(=O)(O)OP(=O)(O)OC[C@@H]1C=C[C@H](n2cc(C)c(=O)[nH]c2=O)O1.N.N (stereo not given in full) | 200 | 9900 | 38000 | 4.3 |  | 14.4 | 0.009 |  | 97 |  | 
CCCCCCCCCCCCCCCCCCP(=O)(OCc1ccc(OC(=O)CCCC)cc1)OP(=O)(O)OP(=O)(O)OC[C@@H]1C=C[C@H](n2cc(C)c(=O)[nH]c2=O)O1.N.N (stereo not given in full) | 21 | 42 | 19000 | 6.7 |  | 26.9 | 2 |  | 7.4 |  | 
CCCCCCCCCCCCP(=O)(OCCC#N)OP(=O)(O)OP(=O)(O)OC[C@@H]1C=C[C@H](n2cc(C)c(=O)[nH]c2=O)O1.N.N (stereo not given in full) | 87 | 20900 | > 100000 | > 15 |  | 6.17 | > 80 |  | 210 |  | 
CCCCCCCCCCCCCCCCCCP(=O)(OCc1ccc(OC(=O)OCCCC)cc1)OP(=O)(O)OP(=O)(O)OC[C@@H]1C=C[C@H](n2cc(C)c(=O)[nH]c2=O)O1.N.N (stereo not given in full) | 26 | 32 | 16000 | > 10 |  | 51.7 | 1.04 |  | 1.8 |  | 
CCCCCCCCCCCCP(=O)(OCc1ccc(OC(C)=O)cc1)OP(=O)(O)OP(=O)(O)OC[C@@H]1C=C[C@H](n2cc(C)c(=O)[nH]c2=O)O1.N.N (stereo not given in full) | 21 | 26300 | > 100000 | 0.043 |  | 4.29 | 0.46 |  | 23 |  | 
CCCCCCCCCCCCP(=O)(OCc1ccc(OC(=O)OCCCCCCCCCCC)cc1)OP(=O)(O)OP(=O)(O)OC[C@@H]1C=C[C@H](n2cc(C)c(=O)[nH]c2=O)O1.N.N (stereo not given in full) | 110 | 320 | 39000 | > 10 |  | 47.9 | 10.6 |  | 40 |  | 
CCCCCCCCCCCCP(=O)(OCc1ccc(OC(=O)OC)cc1)OP(=O)(O)OP(=O)(O)OC[C@@H]1C=C[C@H](n2cc(C)c(=O)[nH]c2=O)O1.N.N (stereo not given in full) | 350 | 36800 | > 100000 | 0.65 |  | 5.12 | 0.7 |  | 95 |  | 
CCCCCCCCCCCCCCP(=O)(OCc1ccc(OC(=O)OCCCC)cc1)OP(=O)(O)OP(=O)(O)OC[C@@H]1C=C[C@H](n2cc(C)c(=O)[nH]c2=O)O1.N.N (stereo not given in full) | 220 | 1760 | 32000 | 64 |  | 21.6 | 0.032 |  | 120 |  | 
CCCCCCCCCCCCP(=O)(OCc1ccc(OC(=O)CCCCCCCCCCC)cc1)OP(=O)(O)OP(=O)(O)OC[C@@H]1C=C[C@H](n2cc(C)c(=O)[nH]c2=O)O1.N.N (stereo not given in full) | 91 | 66 | 37000 | > 8 |  | 38.3 | 0.917 |  | 7.4 |  | 
CCCCCCCCCCCCCCP(=O)(OCc1ccc(OC(=O)CCCC)cc1)OP(=O)(O)OP(=O)(O)OC[C@@H]1C=C[C@H](n2cc(C)c(=O)[nH]c2=O)O1.N.N (stereo not given in full) | 160 | 530 | 56000 | 4.5 |  | 21.2 | 0.081 |  | 31 |  | 
